Results: patent US8314139B2, “Toluene sulfonic acid salt of a therapeutic compound and pharmaceutical compositions thereof” (Pfizer Inc., priority 2007, dated 2012)
Where a name gives a salt, the structure may show the parent alone.

Tests used:
[1] = Aqueous solubility (RP-HPLC after temperature cycling); type: physicochemical; conditions: for solubility at 25 h: thermodynamic from solid
Procedure: The following information was determined in regard of aqueous solubility. […] These values represent the solubility of the crystalline compound determined via RP-HPLC analysis after subjecting the drug media mixture to a temperature cycling program (40° C. for 8 hours, 15° C. for 5 hours, and 25° C. for 12 hours).

[2] = Hygroscopicity by dynamic vapor sorption (DVS); type: physicochemical
Procedure: Hygroscopicity was assessed using a dynamic vapor sorption technique in which an accurately weighed sample is subjected to progressively changing water vapor pressure while simultaneously recording the weight change. The experiment is conducted isothermally at 25° C.
FIG. 3 provides a moisture sorption isotherm of the tosylate salt of trans-N-ethyl-3-fluoro-3-[3-fluoro-4-(pyrrolidin-1-ylmethyl)phenyl]cyclobutanecarboxamide, with absorption as the (♦) curve and desorption as the (▪) curve, plotting percent change in weight as a function of relative humidity, using the kinetic flow through method (8.1 mg sample, 25° C.).
During the initial drying cycle (25° C., 1% RH), less than 0.1% weight loss was observed, which is consistent with an anhydrous non-hygroscopic form. An approximate 0.06% increase in weight was detected by DVS analysis when a sample was exposed to relative humidities from 5% to 90% at 25° C. The desorption phase mimicked the sorption phase when the relative humidity was decreased to 5% (see FIG. 3). Additionally, the powder x-ray diffraction pattern for the sample after hygroscopicity testing matched the pattern of the sample prior to that testing.

## CCNC(=O)[C@H]1C[C@@](F)(c2ccc(CN3CCCC3)c(F)c2)C1 [tosylate salt, (trans)-3-fluoro-3-[3-fluoro-4-(pyrrolidin-1-ylmethyl)phenyl]cyclobutanecarboxylic acid ethylamide tosylate salt]
[1]; 25 °C, fassif, 0.1M phosphate buffered saline with 0.5 weight percent sodium tauracholate/phosphatidyl choline salts, final pH 6.5, temperature cycling
  solubility at 25 h: > 11 mg/mL
[1]; 25 °C, unbuffered water, final pH 3.8, temperature cycling
  solubility at 25 h: 23.6 mg/mL
[1]; aqueous buffer, 0.1M phosphate buffered saline, final pH 6.5, crystalline compound, temperature cycling 40/15/25° C.
  solubility at 25 h: > 10 mg/mL
[1]; summary statement
  aqueous solubility (in words): high aqueous solubility
[2]; 25° C., 1% RH
  weight loss during initial drying cycle: less than 0.1%
[2]; relative humidities from 5% to 90% at 25° C.
  increase in weight by DVS analysis: ~0.06%
[2]; summary statement
  hygroscopicity (in words): only slightly hygroscopic
